# Residues, ends and D or L forms follow the SMILES beside them.
# Columns and labels:
# [1] = target: T1, Nav1.5 R800D (Rattus norvegicus, UniProt P15389, R801D); experiment: Whole-cell patch clamp, Nav1.5 mutant R800D in HEK293 cells; assay type: cell-based; details: 1 µM
# T1 construct: expressed in transfected cells; host or cells: HEK293 (HEK293T) cells, transient
# From the text: We next investigated the critical residues in DIIS3-S4 linker that determined the sensitivity of Nav1.7 to JZTX-34. An acidic residue, D816, is present in the DIIS3-S4 linker of Nav1.7, while the corresponding residue in Nav1.5 is an alkaline amino acid, R800. To determine whether the acidic residue D816 occupies an important role in toxin binding, we constructed two mutants: D816R of Nav1.7 and R800D of Nav1.5. One µM of JZTX-34 inhibited 54.3 ± 5.2% of WT Nav1.7 currents (Figure 4A), but only 16.8 ± 4.6% currents of D816R were inhibited at the same concentration (Figure 4B). […]
# The HEK293T cells were maintained in standard culture conditions (5% CO2 and 37 °C). […] After culturing for 36–72 h, cells with obvious green fluorescence were selected for sodium currents recordings the internal solution for sodium currents recording that contained (in mM) 140 CsF, 5 NaCl, 10 HEPES, 3 Na2-ATP, and 10 EGTA. […]
# Sodium currents were recorded from DRG, HEK293, and ND cells by the whole-cell patch-clamp technique at 25 °C. […] Experiments date were acquired from whole-cell Axon 700B patch clamp amplifier (Molecular Devices, Sunnyvale, CA, USA) and analyzed by the program Clampfit10.0 (Molecular Devices, Sunnyvale, CA, USA) and Sigmaplot. […]
# Data from Axon 700B patch clamp were analyzed by Clampfit10.0 (Molecular Devices, Sunnyvale, CA, USA). […]
# [2] = system: formalin-induced paw licking response in mice; experiment: Formalin-induced paw licking; assay type: in vivo, mouse (Kunming); details: for paw licking time, early phase: control 145.5 s; for paw licking time, early phase / paw licking time, late phase: n = 6; for paw licking time, late phase: control 414.5 s
# Procedure: Since Nav1.7 plays an important role in pain, the analgesic effects of JZTX-34 were examined in three animal models (formalin-induced paw licking, acetic acid-induced writhing, and hot plate). Intraplantar injection of formalin causes pain and can be divided into two phases. The early phase was neurogenic pain and usually occurred within […]), and the late phase was inflammatory pain lasting from 15 to 30 min).
# Figure 6 Effects of JZTX-34 on pain. (A) Effects of JZTX-34 on the early phase (0–5 min) and late phase (15–30 min) of formalin-induced paw licking response in mice. (B) Effects of JZTX-34 on the acetic acid-induced writhing response in mice. (C)Effects of JZTX-34 on the hot plate test in mice.
# The synthesized JZTX-34 was obtained according to the procedure as previously described. […] Rats (Sprague-Dawley) and Kunming mice were maintained in the Laboratory of Protein Chemistry of Hunan Normal University. All of the experimental involving animals were approved by the Animal Care and Use Committee of Hunan Normal University (2016-273, 13 October 2016).
# Formalin test was performed according to the method described previously. […] After test samples were intraperitoneally (i.p.) injected, 5% formalin (20 μL) was injected to the plantar surface of right hind paw. The time spent licking the injected paw was counted every 5 min. Phase I was defined as 0–10 min, and Phase II defined as […].
# Data from Axon 700B patch clamp were analyzed by Clampfit10.0 (Molecular Devices, Sunnyvale, CA, USA). Dose-response curves were fitted by the Hill logistic equation: y = 1 − (1 − fmax)/[…]. In this equation, n stands an empirical Hill coefficient and fmax is the fraction of current resistant to inhibition at high toxin (Tx) concentration. The G-V curves were obtained by calculating the conductance (G) at each voltage (V) using the equation G = I/(V1 − Vrev), with Vrev being the reversal potential determined for each cell individually. G-V curves were fitted using a Boltzmann equation—y = 1/(1 + exp[(Va − V)/κ])—in which Va, V, and κ represent midpoint voltage of kinetics, test potential, and slope factor, respectively. […] Statistical significance was calculated using Student’s t-test and was defined as p < 0.05.
# T1 sequence (Q07699 19-218): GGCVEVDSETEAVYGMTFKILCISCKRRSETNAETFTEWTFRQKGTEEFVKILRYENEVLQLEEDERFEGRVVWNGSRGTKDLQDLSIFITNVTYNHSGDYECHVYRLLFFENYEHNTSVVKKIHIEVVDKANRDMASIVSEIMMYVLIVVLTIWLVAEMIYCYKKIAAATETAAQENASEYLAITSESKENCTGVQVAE
# T1 sequence (P15389 whole entry R801D): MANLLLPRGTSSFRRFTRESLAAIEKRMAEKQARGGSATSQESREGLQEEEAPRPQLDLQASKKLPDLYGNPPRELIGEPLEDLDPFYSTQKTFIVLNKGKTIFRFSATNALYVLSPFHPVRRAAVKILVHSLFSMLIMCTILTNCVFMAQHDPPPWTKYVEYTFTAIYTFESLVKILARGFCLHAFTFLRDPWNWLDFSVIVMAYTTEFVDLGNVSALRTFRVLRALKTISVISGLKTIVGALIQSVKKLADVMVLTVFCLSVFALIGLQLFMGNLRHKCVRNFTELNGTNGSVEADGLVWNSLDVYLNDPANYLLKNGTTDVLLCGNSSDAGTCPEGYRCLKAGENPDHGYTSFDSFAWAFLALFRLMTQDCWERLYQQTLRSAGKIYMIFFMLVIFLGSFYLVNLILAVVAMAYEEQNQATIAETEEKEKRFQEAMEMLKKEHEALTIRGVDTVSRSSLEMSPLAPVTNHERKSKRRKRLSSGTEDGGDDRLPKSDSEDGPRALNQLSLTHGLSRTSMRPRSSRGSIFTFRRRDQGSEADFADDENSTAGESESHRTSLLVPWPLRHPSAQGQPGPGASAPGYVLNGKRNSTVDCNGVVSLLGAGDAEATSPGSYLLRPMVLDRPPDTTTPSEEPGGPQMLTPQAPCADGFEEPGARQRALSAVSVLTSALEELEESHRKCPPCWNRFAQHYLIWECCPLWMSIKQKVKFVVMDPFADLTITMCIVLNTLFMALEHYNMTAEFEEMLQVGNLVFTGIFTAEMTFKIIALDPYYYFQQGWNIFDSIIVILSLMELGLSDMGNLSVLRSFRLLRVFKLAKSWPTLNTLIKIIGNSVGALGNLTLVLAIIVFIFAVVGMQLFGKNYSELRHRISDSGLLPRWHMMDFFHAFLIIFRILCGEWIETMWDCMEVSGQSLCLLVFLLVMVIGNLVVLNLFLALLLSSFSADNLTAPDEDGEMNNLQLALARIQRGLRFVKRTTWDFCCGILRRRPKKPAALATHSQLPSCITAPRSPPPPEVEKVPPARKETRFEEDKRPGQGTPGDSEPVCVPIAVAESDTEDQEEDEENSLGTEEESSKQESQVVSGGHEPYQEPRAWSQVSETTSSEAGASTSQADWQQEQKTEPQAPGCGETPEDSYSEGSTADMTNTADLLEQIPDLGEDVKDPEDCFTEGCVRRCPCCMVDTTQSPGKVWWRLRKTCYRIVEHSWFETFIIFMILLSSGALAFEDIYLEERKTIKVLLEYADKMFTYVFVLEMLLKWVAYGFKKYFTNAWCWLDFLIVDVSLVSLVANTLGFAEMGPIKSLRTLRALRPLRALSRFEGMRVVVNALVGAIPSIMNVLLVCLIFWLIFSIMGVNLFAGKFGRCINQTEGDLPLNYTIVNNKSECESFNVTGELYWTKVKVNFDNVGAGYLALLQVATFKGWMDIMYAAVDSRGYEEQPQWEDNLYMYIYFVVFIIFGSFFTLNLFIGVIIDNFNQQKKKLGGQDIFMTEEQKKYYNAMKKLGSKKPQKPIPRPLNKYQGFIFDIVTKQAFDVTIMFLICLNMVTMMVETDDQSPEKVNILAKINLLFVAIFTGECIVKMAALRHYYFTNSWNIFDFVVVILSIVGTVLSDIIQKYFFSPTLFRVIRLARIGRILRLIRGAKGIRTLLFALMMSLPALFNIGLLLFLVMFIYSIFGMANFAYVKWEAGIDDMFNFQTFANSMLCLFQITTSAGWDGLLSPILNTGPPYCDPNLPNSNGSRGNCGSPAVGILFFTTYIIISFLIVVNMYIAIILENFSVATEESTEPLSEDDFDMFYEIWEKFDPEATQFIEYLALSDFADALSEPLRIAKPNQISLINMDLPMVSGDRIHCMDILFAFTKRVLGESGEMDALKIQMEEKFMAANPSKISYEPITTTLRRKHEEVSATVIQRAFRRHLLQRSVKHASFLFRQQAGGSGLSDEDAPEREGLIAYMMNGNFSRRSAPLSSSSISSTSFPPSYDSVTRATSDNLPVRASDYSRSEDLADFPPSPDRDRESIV
structure (smiles),measurement,setting,value
"CC(C)C[C@@H]1NC(=O)[C@H](Cc2c[nH]c3ccccc23)NC(=O)[C@H](CCC(=O)O)NC(=O)[C@H](CCCNC(=N)N)NC(=O)[C@@H](NC(=O)[C@H](C)N)CSSC[C@@H]2NC(=O)[C@@H]3CSSC[C@@H](C(=O)N[C@H](C(=O)N[C@@H](Cc4c[nH]c5ccccc45)C(=O)N[C@@H](CC(=O)O)C(=O)N[C@@H](Cc4c[nH]c5ccccc45)C(=O)N[C@H](C(=O)N[C@H](C(=O)O)C(C)C)[C@@H](C)O)C(C)C)NC(=O)[C@H](Cc4c[nH]cn4)NC(=O)[C@H](Cc4ccc(O)cc4)NC(=O)[C@@H]4CCCN4C(=O)[C@H](Cc4c[nH]c5ccccc45)NC(=O)[C@H](CCCCN)NC(=O)[C@H](CCCCN)NC(=O)[C@H](CCCNC(=N)N)NC(=O)[C@H](CSSC[C@H](NC(=O)CNC(=O)CNC1=O)C(=O)N[C@@H](CO)C(=O)N[C@@H](CCCCN)C(=O)N[C@@H](CC(=O)O)C(=O)N[C@@H](C)C(=O)N[C@@H](CC(=O)O)C(=O)N3)NC(=O)[C@H](CCC(=O)O)NC(=O)[C@H](CC(C)C)NC(=O)[C@H](Cc1c[nH]cn1)NC(=O)[C@H](C)NC2=O [JZTX-34, Jingzhaotoxin-34] (HELM PEPTIDE1{A.C.R.E.W.L.G.G.C.S.K.D.A.D.C.C.A.H.L.E.C.R.K.K.W.P.Y.H.C.V.W.D.W.T.V}$PEPTIDE1,PEPTIDE1,2:R3-16:R3|PEPTIDE1,PEPTIDE1,9:R3-21:R3|PEPTIDE1,PEPTIDE1,15:R3-29:R3$$$V2.0; N-terminus and C-terminus assumed)",inhibition of Nav1.5 R800D currents,[1],obviously inhibited
same,"paw licking time, early phase",[2]; 0.5 mg/kg i.p.,125.5 s
same,"paw licking time, late phase",[2]; 0.5 mg/kg i.p.,282.2 s
same,"paw licking time, early phase",[2]; 1 mg/kg i.p.,50.1 s
same,"paw licking time, late phase",[2]; 1 mg/kg i.p.,263.6 s
same,"paw licking time, early phase",[2]; 2 mg/kg i.p.,34.7 s
same,"paw licking time, late phase",[2]; 2 mg/kg i.p.,148.0 s
same,"formalin first phase, efficacy vs morphine",[2]; JZTX-34 2 mg/kg vs morphine 5 mg/kg,equipotent with morphine (5 mg/kg)

# Source: article PMC5848165 (Toxins, 2018)
